Results published in ChEMBL document CHEMBL3046419, “Nematicidal activity of anion transport blockers against Meloidogyne incognita, Caenorhabditis elegans and Heterorhabditis bacteriophora” (Pest Manag Sci, 2008).
≈ marks a conversion by molar mass, not a printed value. Calls of active or inactive are those of the source. The calls are words filed in the database; no cut-off is given here.

Key:
Caenorhabditis elegans [1] = test: Nematicidal activity against adult Caenorhabditis elegans N2 Bristol assessed as mortality at 40 mg/l after 48 hr relative to control; type: functional
Meloidogyne incognita [2] = test: Nematicidal activity against J2 juveniles of Meloidogyne incognita (root-knot nematode) assessed as mortality at 40 mg/l after 48 hr relative to control; type: functional
Caenorhabditis elegans [3] = test: Nematicidal activity against adult Caenorhabditis elegans N2 Bristol assessed as mortality at 40 mg/l after 24 hr relative to control; type: functional
Meloidogyne incognita [4] = test: Ovicidal activity against Meloidogyne incognita (root-knot nematode) eggs assessed as inhibition of egg hatching at 40 mg/l after 120 hr relative to control; type: functional
Meloidogyne incognita [5] = test: Ovicidal activity against Meloidogyne incognita (root-knot nematode) eggs after 120 hr; type: functional, organism-based
Caenorhabditis elegans [6] = test: Nematicidal activity against adult Caenorhabditis elegans N2 Bristol after 48 hr; type: functional
Meloidogyne incognita [7] = test: Nematicidal activity against J2 juveniles of Meloidogyne incognita (root-knot nematode) after 120 hr relative to control; type: functional
Caenorhabditis elegans [8] = test: Nematicidal activity against adult Caenorhabditis elegans N2 Bristol after 72 hr; type: functional
Caenorhabditis elegans [9] = test: Nematicidal activity against adult Caenorhabditis elegans N2 Bristol assessed as mortality at 40 mg/l after 120 hr relative to control; type: functional
Caenorhabditis elegans [10] = test: Inhibition of […] in Caenorhabditis elegans N2 Bristol assessed as increase in pharyngeal musle contraction frequency at 50 mg/l after 1 hr relative to control; type: functional
Caenorhabditis elegans [11] = test: Nematicidal activity against adult Caenorhabditis elegans N2 Bristol after 120 hr; type: functional
Meloidogyne incognita [12] = test: Ovicidal activity against Meloidogyne incognita (root-knot nematode) eggs assessed as inhibition of egg hatching at 40 mg/l after 24 to 72 hr relative to control; type: functional; conditions: read-out: mortality
Meloidogyne incognita [13] = test: Ovicidal activity against Meloidogyne incognita (root-knot nematode) eggs after 168 hr; type: functional, organism-based
Caenorhabditis elegans [14] = test: Nematicidal activity against adult Caenorhabditis elegans N2 Bristol after 168 hr; type: functional
[15] = test system: Heterorhabditis bacteriophora; test: Nematicidal activity against J3 juveniles of Heterorhabditis bacteriophora assessed as mortality at 200 mg/l after 168 hr relative to control; type: functional
Meloidogyne incognita [16] = test: Nematicidal activity against J2 juveniles of Meloidogyne incognita (root-knot nematode) after 72 hr relative to control; type: functional
Meloidogyne incognita [17] = test: Nematicidal activity against J2 juveniles of Meloidogyne incognita (root-knot nematode) after 168 hr relative to control; type: functional
Caenorhabditis elegans [18] = test: Inhibition of […] in Caenorhabditis elegans N2 Bristol assessed as increase in pharyngeal musle contraction frequency at 50 mg/l after 6 hr relative to control; type: functional, organism-based
[19] = test system: Bursaphelenchus xylophilus; test: Nematicidal activity against Bursaphelenchus xylophilus assessed as mortality at 1 mg/l after 48 hr relative to control; type: functional
[20] = target: T1, Chloride channel protein clh-3 (Caenorhabditis elegans) (UniProt Q9BMK9); conditions: 100 uM
T1 sequence (whole entry): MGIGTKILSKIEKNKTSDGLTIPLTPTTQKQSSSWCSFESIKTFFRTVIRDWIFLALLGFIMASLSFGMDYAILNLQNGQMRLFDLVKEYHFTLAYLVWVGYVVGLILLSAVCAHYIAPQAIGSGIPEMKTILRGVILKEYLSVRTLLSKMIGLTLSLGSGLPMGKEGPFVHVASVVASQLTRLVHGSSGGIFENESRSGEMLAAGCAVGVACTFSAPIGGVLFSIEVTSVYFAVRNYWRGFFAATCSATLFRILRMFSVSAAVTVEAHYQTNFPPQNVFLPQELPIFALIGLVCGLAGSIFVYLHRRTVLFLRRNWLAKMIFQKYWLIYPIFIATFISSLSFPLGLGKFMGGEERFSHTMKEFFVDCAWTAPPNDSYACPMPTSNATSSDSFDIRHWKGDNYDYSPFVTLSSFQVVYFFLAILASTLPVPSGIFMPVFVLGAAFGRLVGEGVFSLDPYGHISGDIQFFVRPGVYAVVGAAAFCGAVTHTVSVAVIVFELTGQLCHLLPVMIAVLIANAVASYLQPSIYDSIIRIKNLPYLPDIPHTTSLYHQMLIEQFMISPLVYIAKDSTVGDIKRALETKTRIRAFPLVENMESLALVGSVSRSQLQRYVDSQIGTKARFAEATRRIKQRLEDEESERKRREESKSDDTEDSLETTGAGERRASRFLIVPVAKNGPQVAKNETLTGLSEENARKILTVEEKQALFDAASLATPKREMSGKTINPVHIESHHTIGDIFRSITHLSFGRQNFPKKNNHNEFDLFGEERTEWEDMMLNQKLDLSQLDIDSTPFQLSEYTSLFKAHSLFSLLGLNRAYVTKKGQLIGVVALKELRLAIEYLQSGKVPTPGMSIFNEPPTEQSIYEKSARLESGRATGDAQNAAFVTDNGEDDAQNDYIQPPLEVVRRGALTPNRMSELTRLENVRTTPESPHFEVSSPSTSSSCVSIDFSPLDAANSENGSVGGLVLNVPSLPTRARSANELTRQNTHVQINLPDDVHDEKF
Description: Inhibition of CECLC-3 in Caenorhabditis elegans oocyte membrane at 100 uM

[21] = test system: Heterorhabditis bacteriophora; test: Nematicidal activity against J3 juveniles of Heterorhabditis bacteriophora assessed as mortality at < 200 mg/l; type: functional, organism-based
[22] = test system: Heterorhabditis bacteriophora; test: Nematicidal activity against J3 juveniles of Heterorhabditis bacteriophora assessed as mortality at 200 mg/l after 24 hr relative to control; type: functional
Caenorhabditis elegans [23] = test: Nematicidal activity against adult Caenorhabditis elegans after 24 hr; type: functional
Caenorhabditis elegans [24] = test: Nematicidal activity against J4 juvenile of Caenorhabditis elegans after 24 hr; type: functional

O=S(=O)(O)c1cc(N=C=S)ccc1/C=C/c1ccc(N=C=S)cc1S(=O)(=O)O
mortality at 40 µg/mL (Caenorhabditis elegans [1]): > 50%
mortality at 40 µg/mL (Meloidogyne incognita [2]): < 50%
mortality at 40 µg/mL (Caenorhabditis elegans [3]): < 50%
inhibition at 40 µg/mL (Meloidogyne incognita [4]): 50%
EC50 (Meloidogyne incognita [5]): 29.1 µg/mL (≈ 64.1 µM)
LC50 (Caenorhabditis elegans [6]): 29.6 µg/mL (≈ 65.2 µM)
LC50 (Meloidogyne incognita [7]): 7.48 µg/mL (≈ 16.5 µM)
LC50 (Caenorhabditis elegans [8]): 8.9 µg/mL (≈ 19.6 µM)
mortality at 40 µg/mL (Caenorhabditis elegans [9]): 100%
inhibition at 50 µg/mL (Caenorhabditis elegans [10]): 20%
LC50 (Caenorhabditis elegans [11]): 4.46 µg/mL (≈ 9.81 µM)
inhibition of egg hatching at 40 µg/mL (Meloidogyne incognita [12]): < 50%
EC50 (Meloidogyne incognita [13]): 23.4 µg/mL (≈ 51.6 µM)
LC50 (Caenorhabditis elegans [14]): 3.14 µg/mL (≈ 6.91 µM)
mortality at 200 µg/mL [15]: < 15%
LC50 (Meloidogyne incognita [16]): 15.4 µg/mL (≈ 33.8 µM)
LC50 (Meloidogyne incognita [17]): 4.46 µg/mL (≈ 9.81 µM)
inhibition (Caenorhabditis elegans [18]): inactive

COc1ccc(/C=C/c2ccccc2O)cc1 [2-hydroxy-4'-methoxystilbene]
mortality at 1 µg/mL [19]: 95%

O=C(O)c1cc([N+](=O)[O-])ccc1NCCCc1ccccc1 [5-NITRO-2-PHENYLPROPYLAMINOBENZOIC ACID [NPPB]]
mortality at 40 µg/mL (Caenorhabditis elegans [1]): > 50%
mortality at 40 µg/mL (Meloidogyne incognita [2]): < 50%
mortality at 40 µg/mL (Caenorhabditis elegans [3]): < 50%
inhibition at 40 µg/mL (Meloidogyne incognita [4]): 50%
EC50 (Meloidogyne incognita [5]): 46.5 µg/mL (≈ 155 µM)
LC50 (Caenorhabditis elegans [6]): 38.4 µg/mL (≈ 128 µM)
LC50 (Meloidogyne incognita [7]): 8.09 µg/mL (≈ 26.9 µM)
LC50 (Caenorhabditis elegans [8]): 15.9 µg/mL (≈ 52.8 µM)
inhibition [20]: 90%
mortality at 40 µg/mL (Caenorhabditis elegans [9]): 100%
inhibition at 50 µg/mL (Caenorhabditis elegans [10]): 20%
LC50 (Caenorhabditis elegans [11]): 7.44 µg/mL (≈ 24.8 µM)
inhibition of egg hatching at 40 µg/mL (Meloidogyne incognita [12]): < 50%
EC50 (Meloidogyne incognita [13]): 34.1 µg/mL (≈ 113 µM)
LC50 (Caenorhabditis elegans [14]): 4.56 µg/mL (≈ 15.2 µM)
mortality at 200 µg/mL [15]: < 15%
LC50 (Meloidogyne incognita [16]): 20.1 µg/mL (≈ 66.9 µM)
LC50 (Meloidogyne incognita [17]): 5.27 µg/mL (≈ 17.5 µM)
inhibition (Caenorhabditis elegans [18]): inactive

O=C(O)c1c2ccccc2cc2ccccc12 [ANTHRACENE-9-CARBOXYLIC ACID]
mortality at 40 µg/mL (Caenorhabditis elegans [1]): 45%
mortality at 40 µg/mL (Meloidogyne incognita [2]): < 50%
mortality at 40 µg/mL (Caenorhabditis elegans [3]): < 50%
inhibition at 40 µg/mL (Meloidogyne incognita [4]): < 50%
LC50 (Caenorhabditis elegans [6]): 42.7 µg/mL (≈ 192 µM)
LC50 (Meloidogyne incognita [7]): 11.2 µg/mL (≈ 50.6 µM)
LC50 (Caenorhabditis elegans [8]): 17.8 µg/mL (≈ 80 µM)
mortality at 40 µg/mL (Caenorhabditis elegans [9]): 100%
inhibition at 50 µg/mL (Caenorhabditis elegans [10]): 20%
LC50 (Caenorhabditis elegans [11]): 8.44 µg/mL (≈ 38 µM)
inhibition of egg hatching at 40 µg/mL (Meloidogyne incognita [12]): < 50%
EC50 (Meloidogyne incognita [13]): 48 µg/mL (≈ 216 µM)
LC50 (Caenorhabditis elegans [14]): 5.35 µg/mL (≈ 24.1 µM)
mortality at 200 µg/mL [15]: < 15%
LC50 (Meloidogyne incognita [16]): 26.8 µg/mL (≈ 120 µM)
LC50 (Meloidogyne incognita [17]): 6.27 µg/mL (≈ 28.2 µM)
inhibition (Caenorhabditis elegans [18]): inactive

CCOP(=S)(OCC)Oc1nc(Cl)c(Cl)cc1Cl [CHLORPYRIFOS]
Activity [21]: Active
mortality at 200 µg/mL [22]: 100%
mortality at 200 µg/mL [15]: < 15%

C[C@@]1(C2CCCC2)Cc2cc(OCCC(=O)O)c(Cl)c(Cl)c2C1=O [INDANYLOXYACETIC ACID]
inhibition (Caenorhabditis elegans [18]): inactive

CC(C)c1c(O)cc(/C=C/c2ccccc2)cc1O [TAPINAROF]
LC50 (Caenorhabditis elegans [23]): 50 µg/mL (≈ 197 µM)
LC50 (Caenorhabditis elegans [24]): 50 µg/mL (≈ 197 µM)
